# System: beta-lactamase
# Experiment: In-vitro cleavage of the OSTA-1 prodrug by beta-lactamase (release of trans-cinnamaldehyde monitored by UV absorption at 285 nm)
# Format: biochemical
# Description: Cleavage of the OSTA-1 prodrug was tested in vitro by contact with a beta-lactamase in saline aqueous media.
# The cleavage test is performed in physiological saline buffer (Phosphate Buffer Saline, PBS) at pH 7.0. The OSTA-1 molecule is added at a concentration of 100 microM, along with commercial beta-lactamase at a concentration of 1 unit per mL. Incubation is carried out at 37° C. The appearance of free trans-cinnamaldehyde in the medium is then monitored by UV absorption at 285 nm.
# The release of the active ingredient, in this case trans-cinnamaldehyde, was monitored by UV absorption at 285 nm. The progress of the release of the prodrug molecule's active ingredient (100 microM) was observed, in the presence and absence of beta-lactamase.
smiles,measurement,setting,value
COC(/C=C/c1ccccc1)N(C)C(=O)OCC1=C(C(=O)O)N2C(=O)[C@@H](NC(=O)Cc3cccs3)[C@H]2SC1 (stereo partly drawn) [OSTA-1],cleavability by beta-lactamase (conclusion),"in vitro, saline aqueous media",cleavable by beta-lactamase and releases the active ingredient
same,spontaneous release of the active ingredient in the absence of beta-lactamase,"prodrug 100 microM, PBS pH 7.0, 37° C., no beta-lactamase, UV absorption at 285 nm",no spontaneous release
same,release of the active ingredient (trans-cinnamaldehyde) in the presence of beta-lactamase,"prodrug 100 microM, commercial beta-lactamase 1 unit per mL, PBS pH 7.0, 37° C., UV absorption at 285 nm, after two hours",released in significant quantities

# Source: US20260158148A1, “PRODRUG INTENDED FOR THE TREATMENT OF BACTERIAL […] TO A[…] THE BETA-LACTAM FAMILY” (Osta Therapeutics, priority 2022, published 2026)
